{"source": "patent US10314799B2", "about": "(priority 2015, dated 2019)", "key": {"PEDV [1]": {"system": "PEDV", "conditions": "Virus Research (2013), 171(1), 44-53; cited from earlier work"}, "[2]": {"system": "porcine epidemic diarrhea", "test": "Treatment of porcine epidemic diarrhea of newborn suckling piglets (piglets and lactating sows treated)", "format": "in vivo, pigs", "conditions": "diseased newborn suckling piglets; 100 g per sow per day, 0.2 g per piglet per day", "experimental": "Treatment of the porcine epidemic diarrhea on newborn piglets with taurine was implemented by orally administering a taurine solution to diseased suckling piglets and administering taurine to lactating sows, that is, simultaneous treatment of both the suckling piglets and the lactating sows.\nDrug administration time: the administration by drenching/mixed-feeding was carried out on the day when the disease occurred in the suckling piglets and a non-interrupted administration lasted for 3-10 days. Lactating sows: non-interrupted oral administration lasted for 5-10 days.\nDrug administration dosage: the administration by drenching and/or mixed-feeding was carried out on the day when the disease occurred in the suckling piglets. The administration by drenching: 2% taurine solution at a dosage of 1-5 mL per time and it was taken 2-6 times per day. The administration by mixed-feeding: 1-20 g/L of taurine solution was drunk freely. Lactating sows: each sow was administered with 5-500 g of taurine per day and the administration was in a single dose or in divided doses.\nSpecific operations: 40 litters of diseased newborn suckling piglets and sows thereof were selected and randomly divided into two groups equivalently. Control group: conventional supportive therapy (fluid infusion+antibiotic therapy+atropine sulfate); experimental group: treatment with taurine."}, "[3]": {"system": "porcine transmissible gastroenteritis", "format": "in vivo, pigs"}, "[4]": {"system": "porcine epidemic diarrhea", "test": "Treatment of porcine epidemic diarrhea of weaned piglets, care pigs and finishing pigs", "format": "in vivo", "conditions": "300 mg per kilogram of body weight per day", "experimental": "Treatment of the porcine epidemic diarrhea on the weaned piglets, the care pigs and the finishing pigs with taurine was implemented by orally administering taurine to the pigs, wherein the administration may be carried out by means of feeding in water or mixed feeding.\nDrug administration time: the administration was carried out from the day of occurrence of the disease, and in consideration of the use-cost, the drug administration time is preferably 3-30 days, and more preferably 7-14 days. The effect is subject to an obvious time-effect relationship.\n(§1) Drug administration dosage: 0.1-2% of taurine was added in the daily-drinking water for the pigs to drink freely; or 0.2-5% of taurine was added into the feed, which is equivalent to a dosage of 100-10000 mg per kilogram of body weight per day of taurine, and the administration was in a single dose or in divided doses. The effect is subject to an obvious quantity-effect relationship.\nSpecific operations: 60 diseased weaned piglets, 60 diseased care pigs and 60 diseased finishing pigs were selected, and were randomly divided into two groups equivalently. Control group: conventional supportive therapy (fluid infusion+antibiotic therapy+atropine sulfate); experimental group: treatment with taurine (the dosage of taurine was 300 mg per kilogram of body weight per day)."}, "[5]": {"system": "porcine epidemic diarrhea", "test": "Prevention of porcine epidemic diarrhea of weaned piglets, care pigs and finishing pigs", "format": "in vivo", "conditions": "200 mg per kilogram of body weight per day", "experimental": "Prevention of the porcine epidemic diarrhea on the weaned piglets, the care pigs and the finishing pigs with taurine was implemented by orally administering taurine to a swine herd, wherein the administration may be carried out by means of feeding in water or mixed feeding.\nDrug administration time: a preventative administration was carried out during an epidemic period of the disease, or in autumn, winter and spring when the temperature was low and changed greatly, that is, in the season when the porcine epidemic diarrhea frequently occurs. Generally, the administration can be carried out for a long-term. In consideration of the use-cost, the drug administration time is preferably 3-30 days, and more preferably, 7-14 days. The effect is subject to an obvious time-effect relationship.\nas §1, with “0.005-2%” for “0.1-2%”, “in” for “in the”, “0.01-5%” for “0.2-5%”, “50-10000” for “100-10000”\nSpecific operations: 120 healthy weaned piglets, 120 healthy care pigs and 120 healthy finishing pigs were selected and randomly divided into two groups equivalently. Control group: conventional feeding; experimental group: conventional feeding+taurine (the dosage of taurine was 200 mg per kilogram of body weight per day)."}, "[6]": {"system": "pseudorabies viral diarrhea", "format": "in vivo, pigs"}, "PEDV [7]": {"system": "PEDV", "test": "Prevention of porcine epidemic diarrhea of newborn piglets by orally administering taurine to PEDV-carried pregnant sows", "format": "in vivo, pigs", "conditions": "taurine 50 g per sow per day, oral", "text": "Prevention of the porcine epidemic diarrhea on the newborn piglets with taurine was implemented by orally administering taurine to pregnant sows.\nDrug administration time: 3-30 days before birth of piglets until 15 days after birth of piglets. In consideration of a use-cost, the drug administration time is preferably 5-20 days before birth of piglets until 10 days after birth of piglets, and more preferably 7-14 days before birth of piglets until 5 days after birth of piglets. The effect is subject to an obvious time-effect relationship. The drug administration time for before birth of piglets directly determines a disease incidence of the newborn piglets.\nDrug administration dosage: each pregnant sow was administered with 5-500 g of taurine per day, and the administration was in a single dose or in divided doses. The effect is subject to an obvious quantity-effect relationship.\nSpecific operations: pregnant sows were selected and excrement thereof was tested by RT-PCR to determine the pregnant sows carrying PEDV in vivo. 60 PEDV-carried pregnant sows were divided into two groups randomly. Control group: conventional feeding; experimental group: conventional feeding+50 g per sow per day of taurine."}, "rotavirus diarrhea": {"system": "rotavirus diarrhea", "test": "Treatment of rotavirus diarrhea", "format": "in vivo, pigs"}, "epidemic diarrhea": {"system": "epidemic diarrhea", "conditions": "orally administered to diseased piglets, specific dose; cited from earlier work"}, "[8]": {"conditions": "care pigs, dosage as in Embodiment 4"}, "[9]": {"conditions": "finishing pigs, dosage as in Embodiment 4"}, "[10]": {"conditions": "newborn piglets, dosage as in Embodiment 2"}, "[11]": {"conditions": "weaned piglets, dosage as in Embodiment 4"}}, "note": "Read-outs that look alike come from different tables or passages of the source."}
{"molecule": "NC(=O)c1ncn([C@@H]2O[C@H](CO)[C@@H](O)[C@H]2O)n1", "note": "[Ribavirin]", "values": [{"measurement": "inhibition of replication of PEDV", "setting": "PEDV [1]", "value": "capable of inhibiting replication of PEDV"}]}
{"molecule": "NCCS(=O)(=O)O", "note": "[taurine, β-aminoethanesulfonic acid]", "values": [{"measurement": "10-day-aged survival rate (%)", "setting": "[2]", "value": 22.5, "unit": "%"}, {"measurement": "Prognosis", "setting": "[2]", "value": "Good"}, {"measurement": "Weaned survival rate", "setting": "[2]", "value": 20.7}, {"measurement": "Prognosis", "setting": "[3]; [8]", "value": "Good"}, {"measurement": "Survival rate (%)", "setting": "[3]; [8]", "value": 93.3, "unit": "%"}, {"measurement": "Prognosis", "setting": "[3]; [9]", "value": "Good"}, {"measurement": "Survival rate (%)", "setting": "[3]; [9]", "value": 96.6, "unit": "%"}, {"measurement": "Prognosis", "setting": "[3]; [10]", "value": "Good"}, {"measurement": "Survival rate (%)", "setting": "[3]; [10]", "value": 16.6, "unit": "%"}, {"measurement": "Prognosis", "setting": "[3]; [11]", "value": "Good"}, {"measurement": "Survival rate (%)", "setting": "[3]; [11]", "value": 90, "unit": "%"}, {"measurement": "Prognosis", "setting": "[4]; diseased care pigs", "value": "Good"}, {"measurement": "Survival rate (%)", "setting": "[4]; diseased care pigs", "value": 93.3, "unit": "%"}, {"measurement": "Prognosis", "setting": "[4]; diseased finishing pigs", "value": "Good"}, {"measurement": "Survival rate (%)", "setting": "[4]; diseased finishing pigs", "value": 100, "unit": "%"}, {"measurement": "Prognosis", "setting": "[4]; diseased weaned piglets", "value": "Good"}, {"measurement": "Survival rate (%)", "setting": "[4]; diseased weaned piglets", "value": 90.0, "unit": "%"}, {"measurement": "Disease incidence (%)", "setting": "[5]; care pigs", "value": 3.3, "unit": "%"}, {"measurement": "Prognosis", "setting": "[5]; care pigs", "value": "Excellent"}, {"measurement": "Survival rate (%)", "setting": "[5]; care pigs", "value": 96.6, "unit": "%"}, {"measurement": "Disease incidence (%)", "setting": "[5]; finishing pigs", "value": 0, "unit": "%"}, {"measurement": "Prognosis", "setting": "[5]; finishing pigs", "value": "Excellent"}, {"measurement": "Survival rate (%)", "setting": "[5]; finishing pigs", "value": 98.3, "unit": "%"}, {"measurement": "Disease incidence (%)", "setting": "[5]; weaned piglets", "value": 6.6, "unit": "%"}, {"measurement": "Prognosis", "setting": "[5]; weaned piglets", "value": "Excellent"}, {"measurement": "Survival rate (%)", "setting": "[5]; weaned piglets", "value": 96.6, "unit": "%"}, {"measurement": "Prognosis", "setting": "[6]; [8]", "value": "General"}, {"measurement": "Survival rate (%)", "setting": "[6]; [8]", "value": 43.3, "unit": "%"}, {"measurement": "Survival rate (%)", "setting": "[6]; [10]", "value": 0, "unit": "%"}, {"measurement": "treatment effect on the pseudorabies viral diarrhea", "setting": "[6]; summary of Table 5", "value": "no treatment effect"}, {"measurement": "Death rate of the newborn piglets (%)", "setting": "PEDV [7]", "value": 75.1, "unit": "%"}, {"measurement": "Disease incidence of the new born piglets (%)", "setting": "PEDV [7]", "value": 85, "unit": "%"}, {"measurement": "Prognosis", "setting": "rotavirus diarrhea; [8]", "value": "Good"}, {"measurement": "Survival rate (%)", "setting": "rotavirus diarrhea; [8]", "value": 96.6, "unit": "%"}, {"measurement": "Prognosis", "setting": "rotavirus diarrhea; [10]", "value": "Good"}, {"measurement": "Survival rate (%)", "setting": "rotavirus diarrhea; [10]", "value": 93.6, "unit": "%"}, {"measurement": "Prognosis", "setting": "rotavirus diarrhea; [11]", "value": "Good"}, {"measurement": "Survival rate (%)", "setting": "rotavirus diarrhea; [11]", "value": 96.6, "unit": "%"}]}
{"molecule": "povidone iodine", "values": [{"measurement": "improvement of survival rate", "setting": "epidemic diarrhea", "value": "5-10%"}]}
